These results are taken from patent US7838271B2, “Microbiological method for producing amides” (priority 2001, dated 2010).

Common to all, as to format: cell-based
For assay [1], the system named is Rhodococcus sp. GF270 nitrile hydratase. The procedure: (§1) Nitrile hydratase activity was determined by incubating a reaction mixture comprising 3-cyanopyridine (1.0 M; 1.0 ml), potassium phosphate buffer (0.1 M, pH 7.0; 0.5 ml) and cell suspension (0.5 ml) with stirring at 20° C. for 5 min. The reaction was stopped by adding HCI (5 M; 0.1 ml). After filtration (0.2 μm filter) of the reaction mixture, the amount of nicotinamide produced was determined by means of HPLC (Waters Spherisorb 5 μ ODS2 (4.6×150 mm); KH2P04/H3P04 (10 mM; pH 2.8)/acetonitrile=9:1 (v/v); 1 ml/min; 230 nm). The total activity is expressed as μmol of nicotinamide produced/ (min×ml) and the specific activity is expressed as μmol of nicotinamide produced/(min×ml×OD610 nm).
(§2) A cell suspension was incubated at different nicotinamide concentrations in the range from 0 to 20% (w/v) at 20° C. for 24 h. The cells were removed, washed and resuspended in potassium phosphate buffer (0.1 M; pH 7.0).
(§3) The influence of nicotinamide concentration on the nitrile hydratase activities of Rhodococcus sp. FZ4, Rhodococcus sp. GF270, Amycolatopsis sp. NA40 and Rhodococcus rhodochrous J1 was determined according to Example 9 using the respective microorganism and the nicotinamide concentration indicated in Table 11.

Assay [2] has as its system Rhodococcus sp. FZ4 nitrile hydratase. The procedure: as §1, §2, §3
The test system is the same in assay [3]. The procedure:
as §1
(§4) The preculture medium of Table 2 was inoculated with strain Rhodococcus sp. FZ4 (DSM 13597), followed by incubation with shaking at 28° C. for 1 to 2 days. The preculture was transferred into the culture medium of Table 5, which contained different inducers, and cultured with shaking at 28° C. for 3 days. Nitrile hydratase activity was determined according to Example 1. Rhodococcus sp.
This is another data set of the same source.

Assay [4] relates to Rhodococcus sp. FZ4. The procedure:
as §4

SMILES strings stand for the structures.

For `NC(=O)c1cccnc1` [Nicotinamide], the Relative activity in assay [1] is on record as 100%. For the same molecule, in assay [2], the Relative activity was determined as 100% and the “nitrile hydratase activity after incubation with nicotinamide” value is on record as “corresponded approximately to the original nitrile hydratase activity”. Also, in assay [3], the Specific activity was 1.39 μmol/(min × ml × OD610 nm) and the Total activity was 4.94 µmol/min/mL. In assay [4], this molecule had a Growth of 3.55 OD610 nm.
